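Grown in 96-well plates, cells were treated for 48 hours with each compound at five concentrations. Insufficient inhibition: endpoint recorded as highest concentration tested. At the GI50, growth is halved. TGI: concentration producing complete growth inhibition.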

What all share (experiment): NCI tumour cell line growth inhibition, 48 h
Assay [1] has as its system ACHN renal.
In assay [2] the test system is U251 CNS.
Assay [3] has as its system EKVX NSCLC.
For assay [4], the system named is HCT-15 colon.
Assay [5] concerns OVCAR-4 ovarian.
For assay [6], the system named is LOX IMVI melanoma.
Assay [7] has as its system SNB-19 CNS.
Assay [8] deals with NCI-H226 lung.

As to `C[C@]12CC/C(=N\O)C[C@@H]1CC[C@@H]1[C@@H]2CC[C@]2(C)/C(=N/O)CC[C@@H]12`, the GI50 in assay [1] is 50.1 µM; in assay [2], 35.2 µM; in assay [3], 44.6 µM; in assay [4] it was 43.3 µM; in assay [5] it was 56.8 µM; in assay [6], 21.3 µM. In addition, the GI50 in assay [7] was 79.5 µM. For the same compound, the TGI in assay [1] was above 100 µM; in assay [2] it was above 100 µM; in assay [3], above 100 µM; in assay [4], above 100 µM; in assay [5] it was above 100 µM; in assay [6], 50.7 µM. This compound also displayed a TGI in assay [7] above 100 µM.

On to `CC1=CC[C@@H]2[C@@H](CC[C@@]2(C)O)C(C)(C)[C@H]1CC[C@@H]1[C@@]2(C)CC[C@@H](O)C(C)(C)O[C@@H]2CC[C@]1(C)O`, for which the TGI in assay [1] was 58.7 µM; in assay [2] it was 39.8 µM; in assay [4], 38 µM; in assay [5], above 100 µM; in assay [6], 29.8 µM; in assay [7], 46.2 µM.

As to `COc1ccc2c(c1)O/C(=C\c1ccc([N+](=O)[O-])o1)C2=O`, the GI50 is 0.625 µM in assay [1]; 1.98 µM in assay [2]; 0.271 µM in assay [4]; 3.44 µM in assay [8]; 1.87 µM in assay [5]; 1.14 µM in assay [6]. In addition, the GI50 in assay [7] is 3.09 µM. Further, the TGI worked out at 2.69 µM in assay [1]; 6.56 µM in assay [2]; 1.26 µM in assay [4]; 23.6 µM in assay [8]; 6.5 µM in assay [5]; 2.96 µM in assay [6]. The same compound yielded a TGI in assay [7] above 100 µM.

Consider `COC1=CC(=O)c2c(O)c3c(c(O)c2C1=O)OC1(Oc2c(cc4cc(C)oc(=O)c4c2O)CC1O)C3O` (stereo unspecified), for which the TGI in assay [1] was above 100 µM; in assay [2], above 100 µM; in assay [3], 57 µM; in assay [4] it was above 100 µM; in assay [5], 67.5 µM; in assay [6], above 100 µM. This compound had a TGI in assay [7] of 62.4 µM.

As for `COc1ccc(NC(=O)COc2ccccc2)c(C(N)=O)c1`, the GI50 was 2.98 µM in assay [1]; 0.742 µM in assay [2]; 0.523 µM in assay [4]; 20.9 µM in assay [8]; above 44.8 µM in assay [5]; 3.14 µM in assay [6]. Further, in assay [7], the GI50 is 1.9 µM. Moreover, the TGI in assay [1] is above 100 µM; in assay [2] it was 20.1 µM; in assay [4], above 100 µM; in assay [8], above 100 µM; in assay [5] it was above 100 µM; in assay [6], above 100 µM. Moreover, in assay [7], the TGI is above 68.9 µM.

On to `O=C(NCCN1CCOCC1)Nc1nc2ccc(Sc3nnc4ccc(-c5ccc(F)cc5)nn34)cc2s1`, for which the GI50 in assay [1] is above 90.8 µM; in assay [4], above 26.7 µM; in assay [8] it was 3.67 µM; in assay [7], 2.8 µM. Besides, the TGI in assay [1] was above 100 µM; in assay [4] it was above 100 µM; in assay [8] it was above 100 µM; in assay [6] it was above 42.3 µM; in assay [7], above 100 µM.

With `O=C1c2cccc3c([N+](=O)[O-])ccc(c23)C(=O)N1CCCCl`, the GI50 is above 10 µM in assay [1]; above 10 µM in assay [2]; 5.01 µM in assay [4]; 2.83 µM in assay [8]; 4.77 µM in assay [5]; 1.47 µM in assay [6]. Further, the GI50 in assay [7] is above 10 µM. Further, the TGI in assay [1] was above 10 µM; in assay [2], above 10 µM; in assay [4], above 10 µM; in assay [8], above 10 µM; in assay [5] it was above 10 µM; in assay [6], 2.96 µM. Moreover, the TGI in assay [7] was above 10 µM.

As to `COc1ccccc1CN=C1NC(=O)/C(=C/c2ccc3ncccc3c2)S1`, the GI50 in assay [1] was 7.49 µM; in assay [2] it was 4.51 µM; in assay [4], 4.55 µM; in assay [8], 8.43 µM; in assay [5], 8.88 µM; in assay [6] it was 7.38 µM. Moreover, the GI50 in assay [7] was 4.01 µM. For the same compound, the TGI is above 25 µM in assay [1]; above 16.1 µM in assay [2]; above 25 µM in assay [4]; above 25 µM in assay [8]; above 25 µM in assay [5]; above 25 µM in assay [6]. For the same compound, the TGI in assay [7] was above 25 µM.

For `COc1ccc(C(=O)OC2C(OC3C(O)COC(O[C@H]4C[C@H]5[C@@H]6CC=C7C[C@@H](O)CC[C@]7(C)[C@H]6CC[C@]5(C)[C@H]4[C@H](C)C(=O)CCC(C)C)C3OC(=O)C(C)C)OCC(O)C2O)cc1` (stereo partly specified), the GI50 in assay [1] was 0.111 µM; in assay [2] it was 0.00381 µM; in assay [3], 0.0163 µM; in assay [4], 0.218 µM; in assay [5], 0.295 µM; in assay [6], 0.0107 µM. The GI50 in assay [7] was 0.0336 µM. Also, the TGI was determined as 4.82 µM in assay [1]; 4.16 µM in assay [2]; 3.87 µM in assay [3]; 3.92 µM in assay [4]; 5.12 µM in assay [5]; 0.0488 µM in assay [6]. The same compound came in with a TGI in assay [7] of 3.97 µM.

The values above are taken from PubChem BioAssay (NCI).
